Laboratory results: patent US9447136B2, “Semisynthetic derivatives of Nystatin A1” (BLIRT S.A., priority 2012, dated 2016)
Values after ≈ are worked out from the molar mass of the structure shown.

Assays:
CCRF-CEM = assay: Cytotoxic activity against mammalian cells in tissue culture (MTT); assay type: cell-based, human; conditions: CCRF-CEM, 120 h, MTT
Procedure: (§1) For examinations were used selected cell lines: CCRF-CEM—human acute lymphoblastic leukemia; HepG2—human malignant hepatoma; LLC-PK1—epithelial cell of pig kidney; All lines were from ATCC collection.
(§2) The study are conducted using described below methods of culturing and determination of cytotoxic activity.
(§3) CCRF-CEM cells were cultured in medium RPMI 1640+10% fetal bovine serum (FBS), LLC-PK1 cells in medium Medium 199+3% FBS, HepG2 cells in medium MEM+10% FBS. All media contained 100 μg/ml of penicillin G and streptomycin. 24-wells microplates containing appropriate medium were inoculated with the cells in amount of 1.2×10^4 cells/well and allowed to stand overnight. Next, tested compounds as solution in dimethylsulfoxide (DMSO) were added in volume of 10 μl (serial 2× dilutions). To control well 10 μl of DMSO was added. Microplates with cell suspensions were incubated for 120 h at temperature 37° C. at atmosphere of 95%/5% CO2. After incubation, to all wells 200 μl of solution of 3-(4,5-dimethylthiazole-2-yl)-2,5-diphenylotetrazole bromide (MTT) in PBS (4 mg/ml) was added and plates were further incubated for 4 h at 37° C. Next, to dissolve crystals of formazane 1 ml of DMSO was added and absorption of solutions was measured at the wavelength λ=540 nm (A540), using a microplates reader (Victor^3, Perkin-Wallac). […] From these graphs IC50 values were read, that is concentration of tested compound in the presence at which A540 value is half of A540 value measured in the control sample.

HepG2 = assay: as above; assay type: cell-based, human; conditions: HepG2, 120 h, MTT
Procedure: as §1, §2, §3

[1] = tested on: Candida glabrata DSM 11226; assay: Antifungal activity in vitro, serial dilution in RPMI 1640; assay type: cell-based; conditions: Table 2A; RPMI 1640, pH 7.0
Outline: (§4)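 Serial dilution, RPMI 1640 pH 7.0 (M27-A2 reference method); A531 read-out. IC50 = interpolated conc. at 50% of control A531; MIC = lowest conc. with A531 ≤20% of control.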

[2] = tested on: Candida lusitaniae DSM 70102; assay: as above; assay type: cell-based; conditions: Table 2A; RPMI 1640, pH 7.0
Outline: as §4

[3] = tested on: Candida albicans ATCC 10231; assay: as above; assay type: cell-based
Outline: as §4

[4] = tested on: Saccharomyces cerevisiae ATCC 9763; assay: as above; assay type: cell-based
Outline: as §4

[5] = tested on: Candida tropicalis KKP 334; assay: as above; assay type: cell-based; conditions: Table 2A; RPMI 1640, pH 7.0
Outline: as §4

Candida krusei DSM 6128 = assay: as above; assay type: cell-based; conditions: Table 2A; RPMI 1640, pH 7.0
Outline: as §4

LLC-PK1 = assay: Cytotoxic activity against mammalian cells in tissue culture (MTT); assay type: cell-based, pig; conditions: LLC-PK1, 120 h, MTT
Procedure: as §1, §2, §3

Candida albicans F5 = assay: Antifungal activity towards resistant (MDR) strains; assay type: cell-based; conditions: Candida albicans, F5, read-out: MIC Candida albicans F5
Procedure: (§5) The determination of antifungal activity was performed by the serial dilutions method in buffered RPMI 1640 medium, in a 96-wells microplates, according to the standard procedure (National Committee for Clinical Laboratory Standards. Reference method for broth dilution antifungal susceptibility testing of yeast, approved standard, 2nd ed. M27-A2 vol. 22 Wayne, Pa., 2002). The optical density of cells suspension was measured using a microplates reader (Victor^3, Perkin-Elmer) at the wavelength λ=660 nm (A660). On the basis of received results the diagrams on interrelation between the A660 value and the concentration of tested compound were made. From these graphs MIC values were read, that are the concentrations of tested compounds, in the presence at which A660 value is at most 20% of A660 value measured in control sample.

Candida albicans STY7 = assay: as above; assay type: cell-based; conditions: Candida albicans, STY7, read-out: MIC Candida albicans STY7
Procedure: as §5

Candida albicans B3 = assay: as above; assay type: cell-based; conditions: Candida albicans, B3; fluconazole sensitive, parent strain for B4
Procedure: as §5

Candida albicans STY19 = assay: as above; assay type: cell-based; conditions: Candida albicans, STY19, read-out: MIC Candida albicans STY19
Procedure: as §5

Candida albicans STY31 = assay: as above; assay type: cell-based; conditions: Candida albicans, STY31, read-out: MIC Candida albicans STY31
Procedure: as §5

Candida albicans Gu4 = assay: as above; assay type: cell-based; conditions: Candida albicans, GU4; fluconazole sensitive, parent strain for Gu5
Procedure: as §5

Candida albicans Gu5 = assay: as above; assay type: cell-based; conditions: Candida albicans, GU5; fluconazole-resistant due to the overexpression of CDR1 and CDR2
Procedure: as §5

Candida albicans 5674 = assay: as above; assay type: cell-based; conditions: Candida albicans, 5674, read-out: MIC Candida albicans 5674
Procedure: as §5

Candida albicans B4 = assay: as above; assay type: cell-based; conditions: Candida albicans, B4, read-out: MIC Candida albicans B4
Procedure: as §5

Candida albicans F2 = assay: as above; assay type: cell-based; conditions: Candida albicans, F2; fluconazole sensitive, parent strain for F5
Procedure: as §5

[6] = tested on: Candida quilliermondii DSM 11947; assay: Antifungal activity in vitro, serial dilution in RPMI 1640; assay type: cell-based; conditions: Candida, DSM11947; Table 2B
Outline: as §4

[7] = tested on: Trichoderma viride LOCK E159; assay: as above; assay type: cell-based; conditions: Trichoderma viride, LOCKE159; Table 2B
Outline: as §4

[8] = tested on: Candida pseudotropicalis KKP 324; assay: as above; assay type: cell-based; conditions: Kluyveromyces marxianus, KKP324; Table 2B
Outline: as §4

[9] = tested on: Candida lipolytica KKP 322; assay: as above; assay type: cell-based; conditions: Yarrowia lipolytica, KKP322; Table 2B
Outline: as §4

Candida arborea KKP 319 = assay: as above; assay type: cell-based; conditions: Candida, KKP319; Table 2B
Outline: as §4

[10] = tested on: Candida parapsilosis DSM 5784; assay: as above; assay type: cell-based; conditions: Lodderomyces parapsilosis, DSM5784; Table 2B
Outline: as §4

[11] = tested on: Candida dubliniensis CBS 7987; assay: as above; assay type: cell-based; conditions: Candida dubliniensis, CBS7987; Table 2B
Outline: as §4

[12] = tested on: Candida stellatoidea CBS 1905; assay: as above; assay type: cell-based; conditions: Candida albicans, CBS1905; Table 2B
Outline: as §4

[13] = tested on: Aspergillus niger LOCK E201; assay: as above; assay type: cell-based; conditions: Aspergillus niger, LOCKE201; Table 2B
Outline: as §4

[14] = Table 2A, RPMI 1640, pH 7.0, A531 at most 20% of control

SMILES: CCN(CC)CCNC(=S)NC1C(O)C(C)OC(O[C@H]2/C=C/C=C/C=C/C=C/CC/C=C/C=C/[C@H](C)[C@@H](O)[C@@H](C)[C@H](C)OC(=O)C[C@H](O)C[C@H](O)C[C@H](O)CC[C@@H](O)[C@H](O)CC3(O)C[C@H](O)[C@@H](C(=O)O)[C@H](C2)O3)C1O (stereo partly shown) [Compound N14, N-{3-[2-(N,N-diethylamino)ethyl]thioureidyl}nystatin A1]
- Cytotoxicity IC50 CCRF-CEM (CCRF-CEM): >100 µg/mL
- Cytotoxicity IC50 HepG2 (HepG2): >100 µg/mL
- Antifungal activity Candida glabrata DSM 11226 MIC [1]: 16 µg/mL
- Antifungal activity Candida lusitaniae DSM 70102 MIC [2]: 4 µg/mL
- Antifungal activity Candida albicans ATCC 10231 IC50 ([3]; Table 2A, RPMI 1640, pH 7.0, A531 50% of control): 3.21 µg/mL
- Antifungal activity Candida albicans ATCC 10231 MIC [3, 14]: 8 µg/mL
- Antifungal activity Saccharomyces cerevisiae ATCC 9763 MIC [4, 14]: 4 µg/mL
- Antifungal activity Candida tropicalis KKP 334 MIC [5]: 8 µg/mL
- Antifungal activity Candida krusei DSM 6128 MIC (Candida krusei DSM 6128): 16 µg/mL
- Cytotoxicity IC50 LLC-PK1 (LLC-PK1): >100 µg/mL

SMILES: OC(Cn1cncn1)(Cn1cncn1)c1ccc(F)cc1F [Fluconazole, reference compound]
- MIC (Candida albicans F5): 128 µg/mL (≈ 418 µM)
- MIC (Candida albicans STY7): 512 µg/mL (≈ 1670 µM)
- MIC (Candida albicans B3): 0.5 µg/mL (≈ 1.63 µM)
- MIC (Candida albicans STY19): 64 µg/mL (≈ 209 µM)
- MIC (Candida albicans STY31): 64 µg/mL (≈ 209 µM)
- MIC (Candida albicans Gu4): 0.5 µg/mL (≈ 1.63 µM)
- MIC (Candida albicans Gu5): 256 µg/mL (≈ 836 µM)
- MIC (Candida albicans 5674): 2050 µg/mL (≈ 6690 µM)
- MIC (Candida albicans B4): 16 µg/mL (≈ 52.2 µM)
- MIC (Candida albicans F2): 32 µg/mL (≈ 104 µM)
- MIC [6]: 8 µg/mL (≈ 26.1 µM)
- MIC [7]: 8 µg/mL (≈ 26.1 µM)
- MIC [8]: 0.5 µg/mL (≈ 1.63 µM)
- MIC ([3]; Candida albicans, ATCC10231, Table 2B): 2 µg/mL (≈ 6.53 µM)
- MIC [9]: 8 µg/mL (≈ 26.1 µM)
- MIC (Candida arborea KKP 319): 8 µg/mL (≈ 26.1 µM)
- MIC ([4]; Saccharomyces cerevisiae, ATCC9763, Table 2B): 2 µg/mL (≈ 6.53 µM)
- MIC [10]: 8 µg/mL (≈ 26.1 µM)
- MIC [11]: 2 µg/mL (≈ 6.53 µM)
- MIC [12]: 0.5 µg/mL (≈ 1.63 µM)
- MIC [13]: 16 µg/mL (≈ 52.2 µM)
